Structures can show the parent of a compound that is named as a salt. Where two headings read alike, the source gives them in different places.
Assays:
IL-23p19 = assay: LPS induced IL23p19 in THP-1 cells (with IFNγ primed) assay; format: cell-based, Human; conditions: THP-1 cells, IFNγ primed, LPS 1 ug/mL, 18 hours, 10 pt, read-out: IL23-p19 ELISA, THP1-IFNy, LPS, 10 pt EC50
In short: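 THP-1 cells primed ~18 h with IFNγ (50 ng/mL), pre-incubated 1 h with compound at 37 °C, then stimulated 18 h with LPS (1 ug/mL final). Supernatant IL-23p19 measured by sandwich ELISA with chemiluminescent read-out; EC50 from curve fitting. Toxicity checked on the remaining cells by Cell Titer Glo.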

IL-23 (p19/p40) = assay: IL23-p19 ELISA, Dendritic, LPS (compound screening using DC cells); format: cell-based, Human; conditions: PBMC-derived DC cells, IFNγ primed, LPS 1 μg/ml, 18 hours, 10 pt, read-out: IL23-p19 ELISA, Dendritic, LPS, 10 pt, EC50
In short: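 Human PBMC-derived dendritic cells (7 d GM-CSF 100 ng/ml + IL-4 20 ng/ml), primed 24 h with IFNγ 50 ng/ml, pre-incubated 1 h with compound, then stimulated 18 h with LPS 1 μg/ml. Supernatant IL-23 measured by p19-capture/p40-detection chemiluminescent ELISA; CellTiter Glo checks cytotoxicity.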

SMILES: CC(C)(C)C(=O)N1CC(n2cc(NC(=O)c3ccc(-c4cn[nH]c4)o3)c(-c3ccccn3)n2)C1 [Compound I-91, N-[1-{1-Pivaloylazetidin-3-yl}-3-(pyridine-2-yl)-1H-pyrazol-4-yl]-5-(1H-pyrazol-4-yl)furan-2-carboxamide, formate salt]
- EC50 (IL-23p19; Homo sapiens, THP-1, 18 h): 12.2 nM
- EC50 (IL-23 (p19/p40); Homo sapiens, 18 h): 10.6 nM

SMILES: O=C(Nc1cn([C@H]2CC[C@@H](O)C2)nc1-c1ccccn1)c1ccc(-c2cn[nH]c2)o1 [Compound I-134, N-(1-((1S,3R)-3-hydroxycyclopentyl)-3-(pyridin-2-yl)-1H-pyrazol-4-yl)-5-(1H-pyrazol-4-yl)furan-2-carboxamide formate]
- EC50 (IL-23p19; Homo sapiens, THP-1, 18 h): 29.6 nM
- EC50 (IL-23 (p19/p40); Homo sapiens, 18 h): 91 nM

SMILES: CCO[C@H]1C[C@@H](n2cc(NC(=O)c3csc(-c4cn[nH]c4)n3)c(-c3cccc(C(F)(F)F)n3)n2)C1 [II-90, N-(1-((1,3-cis)-3-ethoxycyclobutyl)-3-(6-(trifluoromethyl)pyridin-2-yl)-1H-pyrazol-4-yl)-2-(1H-pyrazol-4-yl)thiazole-4-carboxamide]
- EC50 (IL-23p19; Homo sapiens, THP-1, 18 h): 176 nM
- EC50 (IL-23 (p19/p40); Homo sapiens, 18 h): 218 nM

SMILES: COCCOCCn1cc(NC(=O)c2ccc(-c3cn[nH]c3)o2)c(-c2ccccn2)n1 [Compound I-17, N-(1-(2-(2-methoxyethoxy)ethyl)-3-(pyridin-2-yl)-1H-pyrazol-4-yl)-5-(1H-pyrazol-4-yl)furan-2-carboxamide hydrochloride salt]
- EC50 (IL-23p19; hydrochloride salt): 285 nM
- EC50 (IL-23 (p19/p40); hydrochloride salt): 424 nM

SMILES: O=C(Nc1cn(C2COC2)nc1-c1ccccn1)c1ccc(-c2cn[nH]c2)o1 [Compound I-25, N-(1-(oxetan-3-yl)-3-(pyridin-2-yl)-1H-pyrazol-4-yl)-5-(1H-pyrazol-4-yl)furan-2-carboxamide]
- EC50 (IL-23p19; Homo sapiens, THP-1, 18 h): 57.1 nM
- EC50 (IL-23 (p19/p40); Homo sapiens, 18 h): 44.1 nM

SMILES: CN(C)[C@H]1C[C@@H](n2cc(NC(=O)c3csc(-c4cn[nH]c4)n3)c(-c3ccccn3)n2)C1 [II-15, N-(1-((1s,3s)-3-(dimethylamino)cyclobutyl)-3-(pyridin-2-yl)-1H-pyrazol-4-yl)-2-(1H-pyrazol-4-yl)thiazole-4-carboxamide]
- EC50 (IL-23p19; Homo sapiens, THP-1, 18 h): 6.4 nM
- EC50 (IL-23 (p19/p40); Homo sapiens, 18 h): 9.6 nM

SMILES: CCO[C@H]1C[C@@H](n2cc(NC(=O)c3csc(-c4cn[nH]c4)n3)c(-c3nc(F)ccc3F)n2)C1 [II-174, N-(3-(3,6-difluoropyridin-2-yl)-1-((cis)-3-ethoxycyclobutyl)-1H-pyrazol-4-yl)-2-(1H-pyrazol-4-yl)thiazole-4-carboxamide]
- EC50 (IL-23p19; Homo sapiens, THP-1, 18 h): 82.1 nM
- EC50 (IL-23 (p19/p40); Homo sapiens, 18 h): 70.8 nM
